Values quoted from earlier work as cited in patent US20080153925A1, “Use of Amphiphilic Copolymers as Solubilising Agents” (BASF Aktiengesellschaft, priority 2004, published 2008).
Values after ≈ are worked out from the molar mass of the structure shown.

Conditions: literature values

Solubility in water (without copolymer)	Compound
445 µg/mL (≈ 1740 µM)	Nc1ccc(S(=O)(=O)Nc2nccs2)cc1 [Sulfathiazole]
0.007 µg/mL (≈ 0.0085 µM)	CCCCC(CC)COC(=O)c1ccc(Nc2nc(Nc3ccc(C(=O)OCC(CC)CCCC)cc3)nc(Nc3ccc(C(=O)OCC(CC)CCCC)cc3)n2)cc1 (centres unmarked) [Uvinul ® T150, tris(2-ethylhexyl) 4,4′,4″-(1,3,5-triazine-2,4,6-triyltriimino)trisbenzoate]
